This is an account of results in PubChem BioAssay (NCI).

Common to all, as to assay: DTP human tumour cell line panel, 48 h
The subject of assay [1] is KM12 colon.
Assay [2] deals with SN12C renal.
In assay [3] the test system is OVCAR-4 ovarian.
Assay [4] relates to HCT-15 colon.
Assay [5] deals with U251 CNS.
Assay [6] deals with MDA-MB-231 breast.
In assay [7] the test system is SK-OV-3 ovarian.
The subject of assay [8] is MDA-N.
Assay [9] concerns HCT-116 colon.
Assay [10] has as its system HT29 colon.
Assay [11] concerns DU-145 prostate.
In assay [12] the test system is ACHN renal.
The test system of assay [13] is SK-MEL-5 melanoma.
Assay [14] relates to MOLT-4 leukemia.
The test system of assay [15] is SF-268 CNS.
Assay [16] deals with CCRF-CEM leukemia.
The test system of assay [17] is HS 578T breast.
For assay [18], the system named is MALME-3M melanoma.
Assay [19] has as its system HCC-2998 colon.

Molecules are shown by their SMILES.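 All cell lines were grown in 96-well plates and treated with compound for 48 hours. TGI: total growth inhibition.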 Where a SMILES comes first, the peptide text is derived from it. [ ]: non-standard residue; d: D form. The star is where a group is joined. Phe(4-NO2) = N[CH](Cc1ccc([N+](=O)[O-])cc1)C(=O)O; Cbz = O=C(OCc1ccccc1)*

As for `CCOC(=O)[C@@H]1OC(c2ccccc2)O[C@H]1C(=O)OCC`, the TGI in assay [1], in assay [2], in assay [3], in assay [4], in [5] and in assay [6] was greater than 100 µM each time. The TGI in assay [7], in [8], in assay [9], in [10], in [11] and in assay [12] was greater than 100 µM throughout. In addition, the TGI in [13], in assay [14], in assay [15], in [16], in assay [17] and in assay [18] was greater than 100 µM each time.

In the case of `CNC1C(O)C(NC)C2OC3(O)C(=O)CC(C)OC3OC2C1O` (configuration not stated), the TGI in assay [1], in assay [2], in assay [3], in [4], in assay [5] and in assay [6] was greater than 100 µM in each case. The TGI in assay [7], in assay [8], in assay [9], in assay [19], in [10] and in assay [11] was greater than 100 µM each time. The TGI in [12], in assay [13], in assay [14], in assay [15], in assay [16] and in assay [17] was greater than 100 µM each time.

On to `Cc1ccccc1N=CN(C)C`, for which the total growth inhibition concentration (TGI) in [2], in assay [3], in assay [4], in [5], in [6] and in assay [7] was greater than 100 µM each time. For the same molecule, the TGI in [8] is greater than 100 µM; in assay [9], greater than 100 µM; in [10] it was greater than 100 µM; in assay [11], greater than 100 µM; in assay [12] it was greater than 100 µM; in assay [13], 43.6 µM. The TGI in assay [14], in [15], in [16], in assay [17] and in assay [18] was greater than 100 µM in each case.

In the case of `CCCCC(C(=O)N/N=C/c1ccc([N+](=O)[O-])o1)C(=O)N/N=C/c1ccc([N+](=O)[O-])o1`, the TGI in assay [1] was determined as 15.4 µM; in assay [2] it was 12.3 µM; in assay [3], 3.4 µM; in assay [4], 6.47 µM; in assay [5], 10.3 µM; in [6], 12 µM. Moreover, the TGI in assay [7] is 50.9 µM; in [8], 16.1 µM; in [9], 2.9 µM; in [10] it was 5.16 µM; in assay [11], 42.9 µM; in [12] it was 3.69 µM. In addition, the TGI in assay [13] amounted to 14.6 µM; in assay [14], 7.72 µM; in assay [15], 20.3 µM; in [16], 5.58 µM; in [17], 5.57 µM; in [18] it was 7.93 µM.

As to `COc1cc(C2SCC(=O)N2Cc2ccccc2)cc(OC)c1OC` (configuration not stated), the TGI in assay [1], in assay [2], in assay [3], in assay [4], in assay [5] and in assay [6] was greater than 100 µM throughout. Besides, the TGI in assay [7], in [8], in [9], in [19], in assay [10] and in assay [11] was greater than 100 µM in each case. The TGI in assay [12], in assay [13], in assay [14], in assay [15], in assay [16] and in [17] was greater than 100 µM in each case.

In the case of `O=C(NCCc1ccccc1)[C@H]1CCCC[C@@H]1CCO`, the TGI in assay [1], in assay [2], in [3], in [4], in assay [5] and in assay [6] was greater than 100 µM throughout. Also, the TGI in assay [7], in assay [8], in [9], in assay [19], in assay [10] and in [11] was greater than 100 µM each time. The TGI in assay [12], in assay [13], in assay [14], in assay [15], in [16] and in assay [17] was greater than 100 µM in each case.

Take `Cc1ccc2nc(N/N=C/c3ccc(C)s3)cc(C)c2c1`: the TGI was found to be 16.1 µM in [1]; 25.3 µM in assay [2]; 24.2 µM in assay [3]; 15.3 µM in assay [4]; 27.6 µM in assay [5]; 31.8 µM in [6]. Moreover, the TGI in assay [7] is 32.7 µM; in assay [8], 20.4 µM; in [9] it was 12.3 µM; in [19], 17.3 µM; in [10], 12.4 µM; in assay [11], 23 µM. Also, the TGI in [12] was found to be 24.1 µM; in assay [13] it was 20.4 µM; in assay [14], 53.4 µM; in [15], 35.4 µM; in assay [17], 39.2 µM; in [18], 32 µM.

Regarding `CC(=O)OCC1OC(n2c(C#N)cc(=O)[nH]c2=O)CC1OC(C)=O` (configuration not stated), the TGI in [1], in assay [2], in assay [3], in assay [4], in assay [5] and in assay [6] was greater than 100 µM in each case. The TGI in assay [7], in assay [8], in [9], in assay [10], in [11] and in assay [12] was greater than 100 µM each time. Further, the TGI in assay [13], in assay [14], in assay [15], in assay [16], in [17] and in assay [18] was greater than 100 µM each time.

Regarding `Cc1ccc2c3c(cnc2n1)C(=O)OCCN3C`, the TGI in [1], in assay [2], in assay [3], in assay [4], in [5] and in assay [6] was greater than 100 µM throughout. Moreover, the TGI in [8], in assay [9], in assay [19], in assay [10], in assay [11] and in [12] was greater than 100 µM each time. In addition, the TGI in assay [13], in assay [14], in assay [15], in assay [16] and in assay [17] was greater than 100 µM throughout.

Take `Cc1n[n+](CC(=O)c2ccccc2)c2sc(N)nn12`: the TGI in assay [1], in assay [2], in assay [3], in assay [4], in assay [5] and in assay [6] was greater than 100 µM throughout. The TGI in [7], in [8], in [9], in assay [10], in [11] and in assay [12] was greater than 100 µM throughout. Besides, the TGI in assay [13], in [14], in assay [15], in assay [16], in [17] and in assay [18] was greater than 100 µM in each case.

On to `CCOC(=O)CCC(NC(=O)OCc1ccccc1)C(=O)NC(CCC(=O)OCC)C(=O)NC(Cc1ccc([N+](=O)[O-])cc1)C(=O)NC(CCC(=O)OCC)C(=O)NC(CCC(=O)OCC)C(=O)OCC` (configuration not stated) (Cbz-E(OEt)E(OEt)[Phe(4-NO2)]E(OEt)E(OEt)-OEt; configuration not given here), for which the TGI in [1], in assay [2], in assay [3], in [4], in assay [5] and in assay [6] was greater than 100 µM each time. The TGI in assay [7], in [8], in assay [9], in [10], in assay [11] and in [12] was greater than 100 µM in each case. Besides, the TGI in assay [13], in assay [14], in assay [16], in assay [17] and in assay [18] was greater than 100 µM each time.

Take `CCN1C(=S)n2cccc2C1CC(=O)c1ccc(Cl)cc1` (configuration not stated): the TGI in assay [1], in assay [2], in assay [3], in assay [4], in assay [5] and in assay [6] was greater than 100 µM in each case. The TGI in assay [7], in assay [8], in assay [9], in assay [19], in [10] and in [11] was greater than 100 µM in each case. Also, the concentration for total growth inhibition (TGI) in assay [12] was greater than 100 µM; in assay [14], 90.1 µM; in assay [15], greater than 100 µM; in assay [17], greater than 100 µM; in [18], greater than 100 µM.

The TGI is the concentration giving total growth inhibition. Read a high TGI as lower sensitivity of the cells.
